Results: patent publication US9771370B2, “Compounds for the inhibition of indoleamine-2,3-dioxygenase” (Merck Patent GmbH, priority 2014, dated 2017)

Biological target: Recombinant human IDO (Homo sapiens, UniProt P14902)
Assay: Bridge-IT tryptophan fluorescence assay of human IDO-1 inhibition
Assay type: biochemical
Details: recombinant human IDO 7.5 nM, L-tryptophan
Procedure: Measurement of human IDO-1 inhibition is performed in 384 well format using the Bridge-IT® tryptophan Fluorescence Assay (Mediomics, LLC, St. Louis, Mo., U.S.A.).
The reaction is initiated by the addition of L-Tryptophan (Sigma) at a final concentration of 100 μM in assay buffer. After 90 minutes of incubation at 37° C., the reaction is stopped by transferring 1 μl of the reaction mixture to 9 μl of Bridge-IT assay solution A. After 30 min of incubation at 30° C., the fluorescence intensity was measured at λex=485 nm and λem=665 nm using Perkin Elmer Envision® Multilabel Reader.
Measurement of human IDO-1 inhibition was performed in 384-well format using the BRIDGE-IT® tryptophan Fluorescence Assay (Mediomics, LLC, St. Louis, Mo., U.S.A.). […] After 30 minutes of pre-incubation at 25° C., the reaction was initiated by the addition of L-Tryptophan (Sigma) at a final concentration of 50 μM in assay buffer. After 60 minutes of incubation at 25° C., the reaction is stopped by transferring 1 μl of the reaction mixture to 9 μl of Bridge-IT assay solution A. After 30 min of incubation at 30° C., the fluorescence intensity was measured at λex=485 nm and λem=665 nm using Perkin Elmer ENVISION® Multilabel Reader.

Recombinant human IDO, sequence (P14902 whole entry): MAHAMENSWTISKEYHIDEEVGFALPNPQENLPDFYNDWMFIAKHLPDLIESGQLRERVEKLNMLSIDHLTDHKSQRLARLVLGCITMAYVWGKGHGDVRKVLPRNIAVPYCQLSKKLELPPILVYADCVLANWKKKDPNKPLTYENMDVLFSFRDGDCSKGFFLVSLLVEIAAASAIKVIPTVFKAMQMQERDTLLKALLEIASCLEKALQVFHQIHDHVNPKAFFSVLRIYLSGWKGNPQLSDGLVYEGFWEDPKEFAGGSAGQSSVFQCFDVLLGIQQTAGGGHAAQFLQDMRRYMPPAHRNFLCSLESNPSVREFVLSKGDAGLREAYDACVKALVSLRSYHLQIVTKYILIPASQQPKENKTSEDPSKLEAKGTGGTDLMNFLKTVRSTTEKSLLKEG

IC50 [nM] | SMILES
> 1000 | CC1(C)CCC(C(O)CC2c3nc(F)ccc3-c3cncn32)CC1 (single isomer, unassigned) [Compound 25a, 1-(4,4-dimethylcyclohexyl)-2-[10-fluoro-4,6,9-triazatricyclo[6.4.0.0^[2,6]]dodeca-1(8),2,4,9,11-pentaen-7-yl]ethan-1-ol]
> 1000 | CC1(C)CCC(C(O)CC2c3nc(F)ccc3-c3cncn32)CC1 (single isomer, unassigned) [Compound 25b, 1-(4,4-dimethylcyclohexyl)-2-[10-fluoro-4,6,9-triazatricyclo[6.4.0.0^[2,6]]dodeca-1(8),2,4,9,11-pentaen-7-yl]ethan-1-ol]
> 1000 | CC1(C)CCC(C(O)CC2c3nc(F)ccc3-c3cncn32)CC1 (single isomer, unassigned) [Compound 25c, 1-(4,4-dimethylcyclohexyl)-2-[10-fluoro-4,6,9-triazatricyclo[6.4.0.0^[2,6]]dodeca-1(8),2,4,9,11-pentaen-7-yl]ethan-1-ol]
> 1000 | CC1(C)CCC(C(O)CC2c3nc(F)ccc3-c3cncn32)CC1 (single isomer, unassigned) [Compound 25d, 1-(4,4-dimethylcyclohexyl)-2-[10-fluoro-4,6,9-triazatricyclo[6.4.0.0^[2,6]]dodeca-1(8),2,4,9,11-pentaen-7-yl]ethan-1-ol]
> 1000 | OC(CC1c2nc(F)ccc2-c2cncn21)C1CCC(F)(F)CC1 (single isomer, unassigned) [Compound 26a, 1-(4,4-difluorocyclohexyl)-2-[10-fluoro-4,6,9-triazatricyclo[6.4.0.0^[2,6]]dodeca-1(8),2,4,9,11-pentaen-7-yl]ethan-1-ol]
100 to 1000 | OC(CC1c2nc(F)ccc2-c2cncn21)C1CCC(F)(F)CC1 (single isomer, unassigned) [Compound 26b, 1-(4,4-difluorocyclohexyl)-2-[10-fluoro-4,6,9-triazatricyclo[6.4.0.0^[2,6]]dodeca-1(8),2,4,9,11-pentaen-7-yl]ethan-1-ol]
100 to 1000 | OC(CC1c2ncccc2-c2cncn21)C1CCC2(CC1)CC2 (single isomer, unassigned) [Compound 29a, 1-[spiro[2.5]octan-6-yl]-2-[4,6,9-triazatricyclo[6.4.0.0^[2,6]]dodeca-1(8),2,4,9,11-pentaen-7-yl]ethan-1-ol]
> 1000 | OC(CC1c2ncccc2-c2cncn21)C1CCC2(CC1)CC2 (single isomer, unassigned) [Compound 29b, 1-[spiro[2.5]octan-6-yl]-2-[4,6,9-triazatricyclo[6.4.0.0^[2,6]]dodeca-1(8),2,4,9,11-pentaen-7-yl]ethan-1-ol]
100 to 1000 | OC(CC1c2ncccc2-c2cncn21)C1CCC2(CC1)CC2 (single isomer, unassigned) [Compound 29c, 1-[spiro[2.5]octan-6-yl]-2-[4,6,9-triazatricyclo[6.4.0.0^[2,6]]dodeca-1(8),2,4,9,11-pentaen-7-yl]ethan-1-ol]
> 1000 | OC(CC1c2ncccc2-c2cncn21)C1CCC2(CC1)CC2 (single isomer, unassigned) [Compound 29d, 1-[spiro[2.5]octan-6-yl]-2-[4,6,9-triazatricyclo[6.4.0.0^[2,6]]dodeca-1(8),2,4,9,11-pentaen-7-yl]ethan-1-ol]
100 to 1000 | FC1(CCC2c3ncccc3-c3cncn32)CCC2(CC1)CC2 (single isomer, unassigned) [Compound 30a, 7-(2-{6-fluorospiro[2.5]octan-6-yl}ethyl)-4,6,9-triazatricyclo[6.4.0.0^[2,6]]dodeca-1(8),2,4,9,11-pentaene]
> 1000 | FC1(CCC2c3ncccc3-c3cncn32)CCC2(CC1)CC2 (single isomer, unassigned) [Compound 30b, 7-(2-{6-fluorospiro[2.5]octan-6-yl}ethyl)-4,6,9-triazatricyclo[6.4.0.0^[2,6]]dodeca-1(8),2,4,9,11-pentaene]
> 1000 | COc1ccc2c(n1)C(CCC1(F)CCCCC1)n1cncc1-2 (single isomer, unassigned) [Compound 32a, 7-[2-(1-fluorocyclohexyl)ethyl]-10-methoxy-4,6,9-triazatricyclo[6.4.0.0^[2,6]]dodeca-1(8),2,4,9,11-pentaene]
100 to 1000 | COc1ccc2c(n1)C(CCC1(F)CCCCC1)n1cncc1-2 (single isomer, unassigned) [Compound 32b, 7-[2-(1-fluorocyclohexyl)ethyl]-10-methoxy-4,6,9-triazatricyclo[6.4.0.0^[2,6]]dodeca-1(8),2,4,9,11-pentaene]
< 100 | COc1ccc2c(n1)C(CCC1(F)CCC(F)(F)CC1)n1cncc1-2 (single isomer, unassigned) [Compound 34a, 10-methoxy-7-[2-(1,4,4-trifluorocyclohexyl)ethyl]-4,6,9-triazatricyclo[6.4.0.0^[2,6]]dodeca-1(8),2,4,9,11-pentaene]
> 1000 | COc1ccc2c(n1)C(CCC1(F)CCC(F)(F)CC1)n1cncc1-2 (single isomer, unassigned) [Compound 34b, 10-methoxy-7-[2-(1,4,4-trifluorocyclohexyl)ethyl]-4,6,9-triazatricyclo[6.4.0.0^[2,6]]dodeca-1(8),2,4,9,11-pentaene]

IC50 [nM] | SMILES
> 1000 | OC1CCC(F)(CCC2c3cccc(F)c3-c3cncn32)CC1 (single isomer, unassigned) [Compound 35a, 4-fluoro-4-(2-(9-fluoro-5H-imidazo[5,1-a]isoindol-5-yl)ethyl)cyclohexanol]
100 to 1000 | OC1CCC(F)(CCC2c3cccc(F)c3-c3cncn32)CC1 (single isomer, unassigned) [Compound 35b, 4-fluoro-4-(2-(9-fluoro-5H-imidazo[5,1-a]isoindol-5-yl)ethyl)cyclohexanol]
< 100 | OC1CCC(F)(CCC2c3cccc(F)c3-c3cncn32)CC1 (single isomer, unassigned) [Compound 35c, 4-fluoro-4-(2-(9-fluoro-5H-imidazo[5,1-a]isoindol-5-yl)ethyl)cyclohexanol]
> 1000 | OC1CCC(F)(CCC2c3cccc(F)c3-c3cncn32)CC1 (single isomer, unassigned) [Compound 35d, 4-fluoro-4-(2-(9-fluoro-5H-imidazo[5,1-a]isoindol-5-yl)ethyl)cyclohexanol]
> 1000 | Fc1cccc2c1-c1cncn1C2CCC1(F)CCCCC1 (single isomer, unassigned) [Compound 36a, 9-fluoro-5-(2-(1-fluorocyclohexyl)ethyl)-5H-imidazo[5,1-a]isoindole]
> 1000 | Fc1cccc2c1-c1cncn1C2CCC1(F)CCCCC1 (single isomer, unassigned) [Compound 36b, 9-fluoro-5-(2-(1-fluorocyclohexyl)ethyl)-5H-imidazo[5,1-a]isoindole]
> 1000 | Fc1ccc(F)c2c1-c1cncn1C2CCC1(F)CCCCC1 (single isomer, unassigned) [Compound 37a, 6,9-difluoro-5-(2-(1-fluorocyclohexyl)ethyl)-5H-imidazo[5,1-a]isoindole]
100 to 1000 | Fc1ccc(F)c2c1-c1cncn1C2CCC1(F)CCCCC1 (single isomer, unassigned) [Compound 37b, 6,9-difluoro-5-(2-(1-fluorocyclohexyl)ethyl)-5H-imidazo[5,1-a]isoindole]
> 1000 | OC1CCC(F)(CCC2c3c(F)ccc(F)c3-c3cncn32)CC1 (single isomer, unassigned) [Compound 38a, 4-(2-(6,9-difluoro-5H-imidazo[5,1-a]isoindol-5-yl)ethyl)-4-fluorocyclohexanol]
100 to 1000 | OC1CCC(F)(CCC2c3c(F)ccc(F)c3-c3cncn32)CC1 (single isomer, unassigned) [Compound 38b, 4-(2-(6,9-difluoro-5H-imidazo[5,1-a]isoindol-5-yl)ethyl)-4-fluorocyclohexanol]
> 1000 | OC1CCC(F)(CCC2c3c(F)ccc(F)c3-c3cncn32)CC1 (single isomer, unassigned) [Compound 38c, 4-(2-(6,9-difluoro-5H-imidazo[5,1-a]isoindol-5-yl)ethyl)-4-fluorocyclohexanol]
< 100 | OC1CCC(F)(CCC2c3c(F)ccc(F)c3-c3cncn32)CC1 (single isomer, unassigned) [Compound 38d, 4-(2-(6,9-difluoro-5H-imidazo[5,1-a]isoindol-5-yl)ethyl)-4-fluorocyclohexanol]
< 100 | COc1ccc2c(n1)C(CC(O)C1CCCCC1)n1cncc1-2 (single isomer, unassigned) [Compound 39a, 1-Cyclohexyl-2-[10-methoxy-4,6,9-triazatricyclo[6.4.0.0^[2,6]]dodeca-1(8),2,4,9,11-pentaen-7-yl]ethan-1-ol]
100 to 1000 | COc1ccc2c(n1)C(CC(O)C1CCCCC1)n1cncc1-2 (single isomer, unassigned) [Compound 39b, 1-Cyclohexyl-2-[10-methoxy-4,6,9-triazatricyclo[6.4.0.0^[2,6]]dodeca-1(8),2,4,9,11-pentaen-7-yl]ethan-1-ol]
> 1000 | COc1ccc2c(n1)C(CC(O)C1CCC(C)(C)CC1)n1cncc1-2 (single isomer, unassigned) [Compound 40a, 1-(4,4-dimethylcyclohexyl)-2-[10-methoxy-4,6,9-triazatricyclo[6.4.0.0^[2,6]]dodeca-1(8),2,4,9,11-pentaen-7-yl]ethan-1-ol]
